Assay results: US20200011856A1, “Method for Determining the Effectiveness of Treatment for the Prevention of Heartworm Disease” (priority 2017, published 2020)
“And” between values parts separate entries of the source, which are not always exact repeats. Identical values can stand only once.

System: Dirofilaria immitis JYD strain (ivermectin-resistant)
Test: Infection of NSG mice with ivermectin-resistant JYD strain D. immitis L3, treatment, recovery and count of worms
Assay type: in vivo
Conditions: for % Rec, Mean: group mean; for % Rec: individual mice
[1] = 7823 1.0 mg/kg Days 1, 15, 30, 50 JYD Di L3 per NSG mouse, recovery Days 40-42, Table 20
[2] = 7823 5.0 mg/kg Days 1, 15, 30, 50 JYD Di L3 per NSG mouse, recovery Days 40-42, Table 20

## CC(C)C[C@H]1C(=O)O[C@H](C)C(=O)N(C)[C@@H](CC(C)(C)F)C(=O)O[C@H](Cc2ccc(OC(F)(F)F)cc2)C(=O)N(C)[C@@H](CC(C)C)C(=O)O[C@H](C)C(=O)N(C)[C@@H](CC(C)(C)F)C(=O)O[C@H](Cc2ccc(OC(F)(F)F)cc2)C(=O)N1C [compound 2677]
2677 1 mg/kg Days 1, 15, 30, 50 JYD Di L3 per NSG mouse, recovery Days 41 and 42, Table 18
  % Rec, Mean: 8%
2677 1 mg/kg Days 1, 15, 30, 50 JYD Di L3 per NSG mouse, recovery Days 41 and 42, Table 18, 1 mg/kg
  % Rec: 6% and 4% (3×) and 2% and 18% and 16%
In vivo, 1 mg/kg
  % Red: % Red: 81%
  Survival, Mean: 4

## CC(C)C[C@H]1C(=O)O[C@H](C)C(=O)N(C)[C@@H](CC(C)(C)F)C(=O)O[C@H](Cc2ccc(C(F)(F)F)cc2)C(=O)N(C)[C@@H](CC(C)C)C(=O)O[C@H](C)C(=O)N(C)[C@@H](CC(C)(C)F)C(=O)O[C@H](Cc2ccc(C(F)(F)F)cc2)C(=O)N1C [compound 3615]
3615 1 mg/kg Days 1, 15, 30, 50 JYD Di L3 per NSG mouse, Table 18, vs Control
  % Red: % Red: 40%
3615 1 mg/kg Days 1, 15, 30, 50 JYD Di L3 per NSG mouse, recovery Days 41 and 42, Table 18
  % Rec, Mean: 26%
3615 1 mg/kg Days 1, 15, 30, 50 JYD Di L3 per NSG mouse, recovery Days 41 and 42, Table 18, 1 mg/kg
  % Rec: 24% (2×) and 26% and 30% and 28% and 36% and 16%
In vivo, 1 mg/kg
  Survival, Mean: 13

## C[C@H]1OC(=O)[C@H](CC(C)(C)C)N(C)C(=O)[C@@H](Cc2ccc(OC(F)(F)F)cc2)OC(=O)[C@H](CC(C)(C)F)N(C)C(=O)[C@@H](C)OC(=O)[C@H](CC(C)(C)C)N(C)C(=O)[C@@H](Cc2ccc(OC(F)(F)F)cc2)OC(=O)[C@H](CC(C)(C)F)N(C)C1=O [compound 5010]
5010 1 mg/kg Days 1, 15, 30, 50 JYD Di L3 per NSG mouse, Table 18, vs Control
  % Red: % Red: 33%
5010 1 mg/kg Days 1, 15, 30, 50 JYD Di L3 per NSG mouse, recovery Days 41 and 42, Table 18
  % Rec, Mean: 29%
5010 1 mg/kg Days 1, 15, 30, 50 JYD Di L3 per NSG mouse, recovery Days 41 and 42, Table 18, 1 mg/kg
  % Rec: 24% (2×) and 36% and 14% and 34% and 30% and 38%
In vivo, 1 mg/kg
  Survival, Mean: 14

## C[C@H]1OC(=O)[C@H](CC2CC2)N(C)C(=O)[C@@H](Cc2ccc(C(C)(C)C)cc2)OC(=O)[C@H](CC(C)(C)F)N(C)C(=O)[C@@H](C)OC(=O)[C@H](CC2CC2)N(C)C(=O)[C@@H](Cc2ccc(C(C)(C)C)cc2)OC(=O)[C@H](CC(C)(C)F)N(C)C1=O [compound 7823]
7823 0.1 mg/kg Days 1, 15, 30, 50 JYD Di L3 per NSG mouse, Table 20, vs Control
  % Red: % Red: 83%
7823 0.1 mg/kg Days 1, 15, 30, 50 JYD Di L3 per NSG mouse, recovery Days 40-42, Table 20
  % Rec, Mean: 4%
7823 0.1 mg/kg Days 1, 15, 30, 50 JYD Di L3 per NSG mouse, recovery Days 40-42, Table 20, 0.1 mg/kg
  % Rec: 6% (2×) and 0% and 8% and 2%
7823 0.25 mg/kg Days 1, 15, 30, 50 JYD Di L3 per NSG mouse, Table 20, vs Control
  % Red: % Red: 91%
7823 0.25 mg/kg Days 1, 15, 30, 50 JYD Di L3 per NSG mouse, recovery Days 40-42, Table 20
  % Rec, Mean: 2%
7823 0.25 mg/kg Days 1, 15, 30, 50 JYD Di L3 per NSG mouse, recovery Days 40-42, Table 20, 0.25 mg/kg
  % Rec: 4% (2×) and 0% (3×)
7823 0.5 mg/kg Days 1, 15, 30, 50 JYD Di L3 per NSG mouse, Table 20, vs Control
  % Red: % Red: 87%
7823 0.5 mg/kg Days 1, 15, 30, 50 JYD Di L3 per NSG mouse, recovery Days 40-42, Table 20
  % Rec, Mean: 3%
7823 0.5 mg/kg Days 1, 15, 30, 50 JYD Di L3 per NSG mouse, recovery Days 40-42, Table 20, 0.5 mg/kg
  % Rec: 0% (2×) and 8% and 4% and 2%
7823 1 mg/kg Days 1, 15, 30, 50 JYD Di L3 per NSG mouse, Table 18, vs Control
  % Red: % Red: 98%
7823 1.0 mg/kg Days 1, 15, 30, 50 JYD Di L3 per NSG mouse, Table 20, vs Control
  % Red: % Red: 100%
[1]
  % Rec, Mean: 0%
  % Rec: 0%
7823 1 mg/kg Days 1, 15, 30, 50 JYD Di L3 per NSG mouse, recovery Days 41 and 42, Table 18
  % Rec, Mean: 1%
7823 1 mg/kg Days 1, 15, 30, 50 JYD Di L3 per NSG mouse, recovery Days 41 and 42, Table 18, 1 mg/kg
  % Rec: 2% (2×) and 0% (4×) and 4%
7823 5.0 mg/kg Days 1, 15, 30, 50 JYD Di L3 per NSG mouse, Table 20, vs Control
  % Red: % Red: 100%
[2]
  % Rec, Mean: 0%
  % Rec: 0%
In vivo, 0.1 mg/kg
  Survival, Mean: 2
In vivo, 0.25 mg/kg
  Survival, Mean: 1
In vivo, 0.5 mg/kg
  Survival, Mean: 1
In vivo, 5 mg/kg
  Survival: 0
  Survival, Mean: 0

## CC(C)C[C@H]1C(=O)O[C@H](C)C(=O)N(C)[C@@H](CC(C)(C)F)C(=O)O[C@H](Cc2ccc(C3CCOCC3)cc2)C(=O)N(C)[C@@H](CC(C)C)C(=O)O[C@H](C)C(=O)N(C)[C@@H](CC(C)(C)F)C(=O)O[C@H](Cc2ccc(C3CCOCC3)cc2)C(=O)N1C [compound 8800]
8800 1 mg/kg Days 1, 15, 30, 50 JYD Di L3 per NSG mouse, Table 18, vs Control
  % Red: % Red: 67%
8800 1 mg/kg Days 1, 15, 30, 50 JYD Di L3 per NSG mouse, recovery Days 41 and 42, Table 18
  % Rec, Mean: 14%
8800 1 mg/kg Days 1, 15, 30, 50 JYD Di L3 per NSG mouse, recovery Days 41 and 42, Table 18, 1 mg/kg
  % Rec: 12% (2×) and 16% and 8% and 4% and 26% and 18%
In vivo, 1 mg/kg
  Survival, Mean: 7
